In US10065950B2, “Substituted thiazoles as HIV integrase inhibitors” (Japan Tobacco Inc., priority 2010, dated 2018):

molecular target: HIV-1 pNL4-3 integrase (Human immunodeficiency virus type 1 group M subtype B (isolate NY5) (HIV-1), UniProt P12497); assay: Determination of enzyme (HIV integrase) inhibitory activity; type: biochemical; details: calculated from inhibition rate (fluorescence)
Protocol: The following explains evaluation methods of the HIV integrase inhibitory activity of the compound of the present invention.
A full-length gene sequence (Accession No.: M19921) of HIV-1 pNL4-3 integrase was inserted into restriction enzyme Nde I and Xho I sites of plasmid pET21a(+) (manufactured by Novagen) to construct an integrase expression vector pET21a-IN-Wild type.
Escherichia coli recombinant BL21(DE3) transformed with plasmid pET21a-IN-Wild type obtained in (i) was shake cultured at 30° C. in a liquid medium containing ampicillin. When the culture reached the logarithmic growth phase, isopropyl-β-D-thiogalactopyranoside was added to promote expression of integrase gene. The culture was continued for 5 hr to promote accumulation of the integrase protein. The recombinant E. coli was collected in pellets by centrifugal separation and preserved at −80° C.
This Escherichia coli was suspended in Lysis buffer (50 mM Tris-HCl (pH 7.6), 10 mM MgCl2, 5 mM DTT), and disrupted by repeating treatments of pressurization and depressurization, and insoluble fraction was collected by centrifugation at 4° C., 18,000 rpm for 60 min. This was suspended in Lysis buffer containing a protease inhibitor, […] and 10 mM CHAPS were added, and the mixture was stirred at 4° C. for 30 min. Water-soluble fraction was collected by centrifugation at 4° C., 9,000 rpm for 30 min. The obtained fraction was diluted with a column buffer (50 mM Tris-HCl (pH 7.6), 1 mM DTT, 10% Glycerol, 10 mM CHAPS) to 5-fold, and the mixture was applied to heparin column (HiPrep 16/10 Heparin FF column: manufactured by GE Healthcare Bio-Sciences). Using a column buffer containing 1M NaCl, a protein was eluted with 0-1M NaCl concentration gradient, and an eluted fraction containing an integrase protein was collected. The obtained fraction was diluted 5-fold with a column buffer (50 mM Tris-HCl (pH 7.6), 1 mM DTT, 10% Glycerol, 10 mM CHAPS), and the mixture was applied to cation exchange column (Mono-S column: manufactured by GE Healthcare Bio-Sciences). Using a column buffer containing 1M NaCl, a protein was eluted with 0-1M NaCl concentration gradient, and an eluted fraction containing an integrase protein was collected. The obtained fractions of the integrase protein were collected, and preserved at −80° C.
The following DNA synthesized by FASMAC was dissolved in TE buffer (10 mM Tris-hydrochloric acid (pH 8.0), 1 mM EDTA) and mixed with donor DNA, target DNA, and each complementary strand (+ and − strands) to 1 μM. The mixture was heated at 95° C. for 5 min, 80° C. for 10 min, 70° C. for 10 min, 60° C. for 10 min, 50° C. for 10 min and 40° C. for 10 min and kept at 25° C. to give a double stranded DNA, which was used for the test.
Donor DNA (+strand having biotin attached to the 5′ terminal)
Target DNA (+, − strands both having digoxigenin attached to the 3′ terminal)
The donor DNA was diluted with TE buffer to 20 nM, of which 50 μL was added to each well of streptavidin-coated black plate (manufactured by PIAS Corporation) and allowed to adsorb at 37° C. for 20 min. The plate was washed with phosphate buffer (Dulbecco's PBS, Sanko Junyaku Co., Ltd.) containing 0.1% Tween 20 and phosphate buffer. Then, an enzyme reaction mixture (70 μL), a test substance (10 μL) diluted with the enzyme reaction mixture and 0.75 μM integrase protein (10 μL) were added to each well and the mixture was reacted at 37° C. for 60 min. composition of enzyme reaction mixture: 30 mM MOPS (3-morpholinopropanesulfonic acid), 5 mM magnesium chloride, 3 mM DTT (dithiothreitol), 0.1 mg/mL BSA (bovine serum albumin), 5% glycerol, 10% DMSO (dimethyl sulfoxide), 0.01% Tween 20.
Then, 25 nM target DNA (10 μL) was added, and the mixture was reacted at 37° C. for 20 min and washed with phosphate buffer containing 0.1% Tween 20 to stop the reaction. […]

Point of comparison: CC(=O)NCC1CN(C(C)C)C(=O)c2c(O)c(=O)c(-c3ncc(Cc4ccc(F)cc4F)s3)cn21 (centres unmarked) [Example 67], IC50 7.6 nM. Against it:
- CCC(=O)NCC1CN(C(C)C)C(=O)c2c(O)c(=O)c(-c3ncc(Cc4ccc(F)cc4F)s3)cn21 (centres unmarked) [Example 68] — within 1.5-fold, 9.8 nM
- CC(C)C(=O)NCC1CN(C(C)C)C(=O)c2c(O)c(=O)c(-c3ncc(Cc4ccc(F)cc4F)s3)cn21 (centres unmarked) [Example 69] — 1.7-fold higher, 13 nM
- CC1(C)Cn2cc(-c3nnc(Cc4ccc(F)cc4F)s3)c(=O)c(O)c2C(=O)N1C1CCOC1 (centres unmarked) [Example 70] — within 1.5-fold, 8.9 nM
- CC(C)N1CC(CC(=O)NC2CC2)n2cc(-c3ncc(Cc4ccc(F)cc4F)s3)c(=O)c(O)c2C1=O (centres unmarked) [Example 71] — within 1.5-fold, 11 nM
- CC(C)N1CC(CC(=O)N2CCOCC2)n2cc(-c3ncc(Cc4ccc(F)cc4F)s3)c(=O)c(O)c2C1=O (centres unmarked) [Example 72] — within 1.5-fold, 11 nM
- COCCN(C)C(=O)CC1CN(C(C)C)C(=O)c2c(O)c(=O)c(-c3ncc(Cc4ccc(F)cc4F)s3)cn21 (centres unmarked) [Example 73] — within 1.5-fold, 7.7 nM
- CC(C)N1C(=O)c2c(O)c(=O)c(-c3nnc(Cc4ccc(F)cc4F)s3)cn2CC1CC(=O)O (centres unmarked) [Example 74] — within 1.5-fold, 5.7 nM
- CC(C)N1C(=O)c2c(O)c(=O)c(-c3nnc(Cc4ccc(F)cc4F)s3)cn2CC1CC(=O)N(C)C (centres unmarked) [Example 75] — within 1.5-fold, 9.1 nM
- CCN(C)C(=O)CC1CN(C(C)C)C(=O)c2c(O)c(=O)c(-c3ncc(Cc4ccc(F)cc4F)s3)cn21 (centres unmarked) [Example 76] — within 1.5-fold, 8.3 nM
- CCN(CC)C(=O)CC1CN(C(C)C)C(=O)c2c(O)c(=O)c(-c3ncc(Cc4ccc(F)cc4F)s3)cn21 (centres unmarked) [Example 77] — within 1.5-fold, 11 nM
- CC(C)N1CC(CNS(C)(=O)=O)n2cc(-c3ncc(Cc4ccc(F)cc4F)s3)c(=O)c(O)c2C1=O (centres unmarked) [Example 78] — within 1.5-fold, 8.9 nM
- CC(C)N1CC(C#N)n2cc(-c3ncc(Cc4ccc(F)cc4F)s3)c(=O)c(O)c2C1=O (centres unmarked) [Example 79] — within 1.5-fold, 6.4 nM
- CC(=O)N(C)CC1CN(C(C)C)C(=O)c2c(O)c(=O)c(-c3ncc(Cc4ccc(F)cc4F)s3)cn21 (centres unmarked) [Example 80] — within 1.5-fold, 9.8 nM
- CNC(=O)CC1Cn2cc(-c3nnc(Cc4ccc(F)cc4F)s3)c(=O)c(O)c2C(=O)N1C(C)C (centres unmarked) [Example 81] — within 1.5-fold, 7.5 nM
- CC(C)N1C(=O)c2c(O)c(=O)c(-c3nnc(Cc4ccc(F)cc4F)s3)cn2CC1CC#N (centres unmarked) [Example 82] — 1.6-fold lower, 4.9 nM
- COCCOC[C@@H]1Cn2cc(-c3nnc(Cc4ccc(F)cc4)s3)c(=O)c(O)c2C(=O)N1C(C)C [Example 83] — within 1.5-fold, 7.1 nM
- COCCOC[C@@H]1Cn2cc(-c3nnc(Cc4ccc(F)cc4)s3)c(=O)c(O)c2C(=O)N1C1CCC1 [Example 84] — within 1.5-fold, 11 nM
- COC[C@H]1CN(C(C)C)C(=O)c2c(O)c(=O)c(-c3nnc(Cc4ccc(F)cc4F)s3)cn21 [Example 85] — within 1.5-fold, 7.5 nM
- COCCOC[C@H]1CN(C2CCC2)C(=O)c2c(O)c(=O)c(-c3nnc(Cc4ccc(F)cc4F)s3)cn21 [Example 86] — within 1.5-fold, 9.5 nM
- COC[C@@H]1CN(C(C)C)C(=O)c2c(O)c(=O)c(-c3nnc(Cc4ccc(F)cc4F)s3)cn21 [Example 87] — within 1.5-fold, 7.7 nM
- COC[C@@H]1CN(C(C)C)C(=O)c2c(O)c(=O)c(-c3nnc(Cc4ccc(F)cc4)s3)cn21 [Example 88] — within 1.5-fold, 8.7 nM
- CCN1C[C@@H](COC)n2cc(-c3nnc(Cc4ccc(F)cc4F)s3)c(=O)c(O)c2C1=O [Example 89] — within 1.5-fold, 8 nM
- CC(C)N1C(=O)c2c(O)c(=O)c(-c3nnc(Cc4ccc(F)cc4F)s3)cn2CC1CCO (centres unmarked) [Example 90] — within 1.5-fold, 6.7 nM
- COC[C@H]1CN(C2CCC2)C(=O)c2c(O)c(=O)c(-c3nnc(Cc4ccc(F)cc4)s3)cn21 [Example 92] — within 1.5-fold, 8.7 nM
- COC[C@@H]1Cn2cc(-c3nnc(Cc4ccc(F)cc4F)s3)c(=O)c(O)c2C(=O)N1C1CCC1 [Example 93] — within 1.5-fold, 7.8 nM
- CC(C)N1CC(C)(C(=O)N2CCC2)n2cc(-c3ncc(Cc4ccc(F)cc4F)s3)c(=O)c(O)c2C1=O (centres unmarked) [Example 94] — within 1.5-fold, 8.8 nM
- COC[C@H]1Cn2cc(-c3nnc(Cc4ccc(F)cc4)s3)c(=O)c(O)c2C(=O)N1C(C)C [Example 95] — within 1.5-fold, 9.5 nM
- COC[C@H]1Cn2cc(-c3nnc(Cc4ccc(F)cc4F)s3)c(=O)c(O)c2C(=O)N1C(C)C [Example 96] — within 1.5-fold, 6.7 nM
- CCN1C[C@H](COC)n2cc(-c3nnc(Cc4ccc(F)cc4F)s3)c(=O)c(O)c2C1=O [Example 97] — within 1.5-fold, 6.6 nM
- COC[C@H]1Cn2cc(-c3nnc(Cc4ccc(F)cc4F)s3)c(=O)c(O)c2C(=O)N1C1CCC1 [Example 98] — within 1.5-fold, 7.5 nM
- COC[C@@H]1Cn2cc(-c3nnc(Cc4ccc(F)cc4F)s3)c(=O)c(O)c2C(=O)N1C(C)C [Example 99] — within 1.5-fold, 6.1 nM
- CC(C)N1C(=O)c2c(O)c(=O)c(-c3nnc(Cc4ccc(F)cc4F)s3)cn2CC12CCOCC2 [Example 100] — within 1.5-fold, 8.1 nM
- CC(C)N1CC(CS(C)(=O)=O)n2cc(-c3ncc(Cc4ccc(F)cc4F)s3)c(=O)c(O)c2C1=O (centres unmarked) [Example 101] — within 1.5-fold, 6.4 nM
- CCN1C(=O)c2c(O)c(=O)c(-c3nnc(Cc4ccc(F)cc4F)s3)cn2C[C@H]1COC [Example 102] — within 1.5-fold, 7.1 nM
- COCC1(C)CN(C(C)C)C(=O)c2c(O)c(=O)c(-c3ncc(Cc4ccc(F)cc4)s3)cn21 (centres unmarked) [Example 103] — 2.4-fold higher, 18 nM
- CNC(=O)C1(C)CN(C(C)C)C(=O)c2c(O)c(=O)c(-c3ncc(Cc4ccc(F)cc4)s3)cn21 (centres unmarked) [Example 104] — 2-fold higher, 15 nM
- CCNC(=O)C1(C)CN(C(C)C)C(=O)c2c(O)c(=O)c(-c3ncc(Cc4ccc(F)cc4)s3)cn21 (centres unmarked) [Example 105] — 2.2-fold higher, 17 nM
- CC(C)NC(=O)C1(C)CN(C(C)C)C(=O)c2c(O)c(=O)c(-c3ncc(Cc4ccc(F)cc4)s3)cn21 (centres unmarked) [Example 106] — 2.6-fold higher, 20 nM
- CC(C)N1CC(C)(C(=O)N(C)C)n2cc(-c3ncc(Cc4ccc(F)cc4)s3)c(=O)c(O)c2C1=O (centres unmarked) [Example 107] — 2.5-fold higher, 19 nM
- CC(C)N1CC(C)(C(=O)N2CCCCC2)n2cc(-c3ncc(Cc4ccc(F)cc4)s3)c(=O)c(O)c2C1=O (centres unmarked) [Example 108] — 2.4-fold higher, 18 nM
- CC(C)N1CC(C)(C(=O)N2CCCC2)n2cc(-c3ncc(Cc4ccc(F)cc4)s3)c(=O)c(O)c2C1=O (centres unmarked) [Example 109] — 2.8-fold higher, 21 nM
- COCCOCC1(C)CN(C(C)C)C(=O)c2c(O)c(=O)c(-c3ncc(Cc4ccc(F)cc4)s3)cn21 (centres unmarked) [Example 110] — 3-fold higher, 23 nM
- CC(C)N1CC(C)(CO)n2cc(-c3ncc(Cc4ccc(F)cc4)s3)c(=O)c(O)c2C1=O (centres unmarked) [Example 111] — 2.6-fold higher, 20 nM
- CC(C)N1CC(C)(C(=O)O)n2cc(-c3ncc(Cc4ccc(F)cc4)s3)c(=O)c(O)c2C1=O (centres unmarked) [Example 112] — 2.5-fold higher, 19 nM
- CCN1C(=O)c2c(O)c(=O)c(-c3nnc(Cc4ccc(F)cc4)s3)cn2C[C@@H]1COC [Example 113] — 1.7-fold higher, 13 nM
- CCN1C(=O)c2c(O)c(=O)c(-c3nnc(Cc4ccc(F)cc4F)s3)cn2C[C@@H]1COC [Example 114] — within 1.5-fold, 8.1 nM
- O=C1c2c(O)c(=O)c(-c3nnc(Cc4ccc(F)cc4)s3)cn2CC(CO)N1C1CC1 (centres unmarked) [Example 115] — 1.6-fold higher, 12 nM
- COC[C@H]1CN(CC2CC2)C(=O)c2c(O)c(=O)c(-c3nnc(Cc4ccc(F)cc4)s3)cn21 [Example 116] — within 1.5-fold, 9.6 nM
- COC[C@H]1CN(CC2CC2)C(=O)c2c(O)c(=O)c(-c3nnc(Cc4ccc(F)cc4F)s3)cn21 [Example 117] — within 1.5-fold, 9.4 nM
- COCCOC[C@H]1CN(CC2CC2)C(=O)c2c(O)c(=O)c(-c3nnc(Cc4ccc(F)cc4)s3)cn21 [Example 118] — 1.7-fold higher, 13 nM
- COCCOC[C@H]1CN(CC2CC2)C(=O)c2c(O)c(=O)c(-c3nnc(Cc4ccc(F)cc4F)s3)cn21 [Example 119] — within 1.5-fold, 11 nM
- COCCOC[C@H]1Cn2cc(-c3nnc(Cc4ccc(F)cc4)s3)c(=O)c(O)c2C(=O)N1C(C)C [Example 120] — 2-fold higher, 15 nM
